In PubChem BioAssay (NCI) one finds TGI and GI50 data, which are given here for 14 compounds.

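In this assay, cells in 96-well plates receive the compound at five concentrations for 48 hours. Endpoints are linearly interpolated between the surrounding concentrations. Here, GI50 denotes the concentration required for 50% inhibition of growth. TGI marks complete inhibition of growth.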

Common to all, as to experiment: NCI tumour cell line growth inhibition, 48 h
Test [1] concerns COLO 205 colon.
In test [2] the test system is K-562 leukemia.
The subject of test [3] is NCI-H23 lung.
Test [4] concerns NCI/ADR-RES ovarian.
For test [5], the system named is RXF 393 renal.
Test [6] concerns SK-MEL-5 melanoma.
For test [7], the system named is TK-10 renal.
The test system of test [8] is U251 CNS.
Test [9] has as its system A549 NSCLC.
Test [10] has as its system SNB-75 CNS.
The subject of test [11] is HOP-92 NSCLC.

With `COc1cc2cc(C(=O)N3CC(CCl)c4ccc(N(C)C)cc43)[nH]c2c(OC)c1OC` (stereo unspecified), the TGI in [1] was 0.213 µM; in test [2], over 100 µM; in [3], 0.118 µM; in [4] it was 0.272 µM; in test [5], 0.0761 µM; in [6], 0.236 µM. Also, the TGI is over 100 µM in test [7] and 4.05 µM in test [8].
Turning to `COC(=O)c1ccccc1/C=C1\Cc2ccc3c(c2C1=O)CCCC3`, the TGI in test [9], in test [1], in test [2], in [3], in test [4] and in test [10] was over 100 µM throughout. The TGI in [7] and in test [8] was over 100 µM throughout.
As to `Cc1cc(Nc2ccc(NS(C)(=O)=O)cc2)c2c(ccc3nccc32)[nH]1`, the TGI in [9] is over 100 µM; in test [1], 35.8 µM; in test [11], 65.6 µM; in test [2], 34.6 µM; in [3], 49.6 µM; in [4] it was over 100 µM. Moreover, the TGI in test [6] is 29.1 µM; in test [7], over 100 µM; in [8] it was 29 µM.
Take `COC(=O)C(Cc1ccc(N(C)C)cc1)(NC(=O)c1ccccc1)P(=O)(OC)OC` (stereo unspecified): the TGI in test [9], in test [1], in [11], in test [2], in test [3] and in [5] was over 100 µM throughout. Besides, the TGI in test [6], in test [10], in test [7] and in [8] was over 100 µM throughout.
Regarding `COC(=O)C1=C(C(=O)OC)C(N(C)C)C(C(=O)OC)=C(C(=O)OC)S1`, the TGI in test [9], in test [1], in test [2], in [3], in [4] and in test [5] was over 100 µM throughout. The TGI in test [10], in test [7] and in test [8] was over 100 µM in each case.
On to `CCCCCCCCCCCCCC[n+]1ccc(C(N)=O)cc1`, for which the GI50 in test [9] was 2.4 µM; in test [1] it was 1.27 µM; in [2], 2.31 µM; in [3] it was 2.42 µM; in test [4], 19 µM; in [10], 1.7 µM. The results for the GI50 in [7] and in test [8] were 1.18 µM and 0.538 µM, respectively. Also, the TGI in test [9] was 6.65 µM; in test [1], 2.69 µM; in [2], over 100 µM; in test [3], 15.2 µM; in test [4], 50.2 µM; in [10], 4.17 µM. Also, the TGI in test [7] came out at 2.79 µM; in test [8], 1.87 µM.
On to `N#Cc1cc(Sc2ccc(N)c(C#N)c2)ccc1N`, for which the TGI in test [9] is over 100 µM; in test [1] it was 23.7 µM; in test [11], over 100 µM; in [2], 60.2 µM; in test [4], 35.3 µM; in [5], over 100 µM. In addition, the figures for the TGI in test [6], in test [7] and in test [8] were 39 µM, over 100 µM and over 100 µM, respectively.
Turning to `O=C1CSC(c2ccc([N+](=O)[O-])cc2)N1c1ccc(-c2ccc(-n3c(-c4ccccc4)nc4ccccc4c3=O)cc2)cc1` (stereo unspecified), the TGI in test [9], in test [1], in [11], in test [2], in test [3] and in test [4] was over 100 µM throughout. Further, the TGI is 62 µM in [6], over 100 µM in test [7] and over 100 µM in test [8].
Turning to `Cc1ccc(-c2cc[n+]3c(n2)oc2ccccc23)cc1`, the TGI in test [9] was over 100 µM; in test [1], 68.5 µM; in [11] it was 47.3 µM; in test [2] it was 22.5 µM; in [3], over 100 µM; in test [4], over 100 µM. For the same compound, the TGI was 65.3 µM in test [10] and over 100 µM in test [8].
In the case of `COC(=O)CNC(=O)CCC(C)[C@H]1CCC2C3C(C[C@H](OC(C)=O)[C@@]21C)[C@@]1(C)CCC2(C[C@H]1C[C@H]3OC(C)=O)OOC1(CC[C@]3(C)C4C[C@H](OC(C)=O)[C@@]5(C)C(CC[C@@H]5C(C)CCC(=O)NCC(=O)OC)C4[C@H](OC(C)=O)C[C@@H]3C1)OO2` (stereo partly specified), the TGI was 2.37 µM in test [9]; 2.64 µM in test [11]; 4.63 µM in test [2]; 3.66 µM in test [3]; over 50 µM in test [4]; 5.17 µM in test [10]. Moreover, the TGI in [7] was determined as 2.55 µM; in test [8] it was 14 µM.
Take `O=C(CN1CCCCC1)Nc1ccc2c(c1)C1Oc3ccccc3CC1CO2` (stereo unspecified): the TGI was over 100 µM in test [9]; 26.2 µM in test [1]; 54.7 µM in [11]; over 100 µM in test [2]; over 100 µM in [3]; 88.3 µM in [4]. Moreover, the TGI in test [6] is 26.7 µM; in test [7], 50.9 µM; in [8], 33.3 µM.
Consider `O=C(Nc1ccccc1Cl)c1ccc([N+](=O)[O-])cc1`, for which the TGI in test [9], in test [1], in [2], in [3], in test [5] and in test [6] was over 100 µM each time. In addition, the TGI is 47.5 µM in test [10], over 100 µM in test [7] and over 100 µM in [8].
Consider `C/C=C(\C)C(=O)O[C@@H]1CC(C)(C)CC2C3=CCC4[C@]56CC[C@](O)(OC5)C(C)(C)C6CC[C@@]4(C)C3(C)CC[C@]21C(=O)O` (stereo partly specified), for which the TGI in [9], in test [1], in [2], in [3], in [4] and in [5] was over 100 µM each time. The TGI in test [6], in [7] and in [8] was over 100 µM in each case.
Regarding `Cn1c2ccccc2c2cc(N3CCCC3)c3c(c21)C(=O)N(c1ccccc1)C3=O`, the TGI in [9] was over 100 µM; in [1], over 100 µM; in test [2], over 100 µM; in test [3], over 100 µM; in test [4], over 100 µM; in test [5] it was 91.2 µM. Also, the TGI in test [6], in test [10], in test [7] and in test [8] was over 100 µM each time.
